Experimental data as given in ChEMBL document CHEMBL1145666, “Geriatrics photo quiz. Thoracic aortic aneurysm” (1983).
Values after ≈ are worked out from the molar mass of the structure shown.

How the values were obtained:
Type in all cases: functional
P388 [1] = experiment: Antitumor activity against mouse P388 cells; details: read-out: ED50 (the source's name)
P388 [2] = experiment: In vivo antitumor activity against mouse P388 cells at 20 ug/kg relative to control
P388 [3] = experiment: In vivo antitumor activity against mouse P388 cells at 40 ug/kg relative to control

SMILES	EC50 (P388 [1])	T/C (P388 [2])	T/C (P388 [3])
C=C(C)[C@]12C[C@@H](C)[C@@]34O[C@](CCCCCCCCC)(O[C@@H]1[C@@H]3[C@@H]1O[C@]1(CO)[C@@H](O)[C@]1(O)C(=O)C(C)=C[C@H]14)O2 [SIMPLEXIN]	5 ng/mL (≈ 9.39 nM)		
C=C(C)[C@]12C[C@@H](C)[C@@]34OC5(CCCCCCC[C@H](C)[C@H]6[C@H](C)[C@H](OC(=O)c7ccccc7)[C@@](O)([C@H](O)[C@@]7(CO)O[C@H]7[C@H]3[C@H]1O5)[C@@H]64)O2 [PIMELEA FACTOR P2]	0.79 ng/mL (≈ 1.24 nM)	132	130
